# Molecular target: T1, Tyrosine-protein kinase JAK2 (Homo sapiens, UniProt O60674)
# Test: Binding affinity to wild type 6XHis-tagged human JAK2 JH2 domain (513 to 827 residues) expressed in baculovirus infected Sf9 cells by MANT-ATP binding assay
# T1 sequence (O60674 whole entry, the tested form may be a part): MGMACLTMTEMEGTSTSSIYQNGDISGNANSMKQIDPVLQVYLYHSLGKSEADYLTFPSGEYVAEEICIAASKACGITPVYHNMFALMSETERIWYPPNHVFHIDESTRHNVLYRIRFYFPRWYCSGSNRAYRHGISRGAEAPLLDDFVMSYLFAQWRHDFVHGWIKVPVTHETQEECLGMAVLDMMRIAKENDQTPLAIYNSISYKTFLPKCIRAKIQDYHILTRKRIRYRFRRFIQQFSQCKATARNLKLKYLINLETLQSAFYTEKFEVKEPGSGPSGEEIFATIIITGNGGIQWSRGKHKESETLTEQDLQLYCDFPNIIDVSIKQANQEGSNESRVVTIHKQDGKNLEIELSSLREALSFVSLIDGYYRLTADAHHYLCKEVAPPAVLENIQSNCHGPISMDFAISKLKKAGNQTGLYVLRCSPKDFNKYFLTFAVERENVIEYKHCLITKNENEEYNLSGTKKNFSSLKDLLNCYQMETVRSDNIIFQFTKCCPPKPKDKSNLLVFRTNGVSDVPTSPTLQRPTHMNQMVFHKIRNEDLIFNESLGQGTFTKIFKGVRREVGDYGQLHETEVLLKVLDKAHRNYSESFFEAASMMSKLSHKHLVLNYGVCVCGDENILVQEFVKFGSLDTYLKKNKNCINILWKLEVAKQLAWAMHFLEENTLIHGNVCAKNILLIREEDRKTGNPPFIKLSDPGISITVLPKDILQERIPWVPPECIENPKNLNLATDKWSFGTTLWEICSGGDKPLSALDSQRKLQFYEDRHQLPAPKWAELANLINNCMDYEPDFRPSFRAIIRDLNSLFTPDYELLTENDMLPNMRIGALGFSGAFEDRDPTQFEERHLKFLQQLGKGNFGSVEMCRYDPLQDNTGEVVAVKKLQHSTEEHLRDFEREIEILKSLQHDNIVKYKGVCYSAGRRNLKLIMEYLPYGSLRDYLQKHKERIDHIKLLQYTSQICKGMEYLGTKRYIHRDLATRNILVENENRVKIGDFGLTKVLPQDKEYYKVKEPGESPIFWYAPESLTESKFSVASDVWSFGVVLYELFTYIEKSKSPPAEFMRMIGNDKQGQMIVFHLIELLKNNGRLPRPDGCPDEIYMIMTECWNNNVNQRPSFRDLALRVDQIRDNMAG
row,Structure (SMILES),Kd [nM]
1,Nc1ncnc2c1ncn2[C@@H]1O[C@H](COP(=O)(O)OP(=O)(O)OP(=O)(O)O)[C@@H](O)[C@H]1O [ADENOSINE TRIPHOSPHATE],1300

# Molecular target: T1, Tyrosine-protein kinase JAK2
# Test: Binding affinity to human C-terminal His8-tagged JAK2 pseudokinase (513 to 827 residues) expressed in baculovirus infected Hi-5 cells by intrinsic tryptophan fluorescence assay
row,Structure (SMILES),Kd [nM]
1,CC(C)CCN1c2nc(Nc3cc(F)c(O)c(F)c3)ncc2N(C)C(=O)C1C (stereo not drawn),620

# Molecular target: Tyrosine-protein kinase JAK2 (Homo sapiens, UniProt O60674, V617F)
# Sequence (O60674 whole entry V617F, the tested form may be a part): as the sequence (O60674 whole entry, the tested form may be a part) above, with V617F counted along it
# Test: Binding affinity to 6XHis-tagged human JAK2 JH2 domain V617F mutant (513 to 827 residues) expressed in baculovirus infected Sf9 cells by MANT-ATP binding assay
row,Structure (SMILES),Kd [nM]
1,Nc1ncnc2c1ncn2[C@@H]1O[C@H](COP(=O)(O)OP(=O)(O)OP(=O)(O)O)[C@@H](O)[C@H]1O [ADENOSINE TRIPHOSPHATE],1300

# Molecular target: T1, Tyrosine-protein kinase JAK2
# Parameters: species or system Sf9
row,Structure (SMILES),Kd [µM]
1,Nc1nc(Nc2ccc(S(N)(=O)=O)cc2)nn1Cc1c(F)cccc1F,16.7
2,N#Cc1ccc(Nc2nc(N)n(C(=O)Nc3cccc(OCC(=O)O)c3)n2)cc1,4
3,Nc1nc(Nc2ccc(S(N)(=O)=O)cc2)nn1C(=O)Nc1ccc(-c2ccc(C(=O)O)o2)cc1,0.439
4,Nc1nc(Nc2ccc(S(N)(=O)=O)cc2)nn1C(=O)Nc1cccnc1,12.3
5,Nc1nc(Nc2ccc(S(N)(=O)=O)cc2)nn1C(=O)Nc1ccccn1,30.5
6,Nc1nc(Nc2ccc(S(N)(=O)=O)cc2)nn1C(=O)Nc1ccccc1,4.7
7,COC(=O)COc1ccc(NC(=O)n2nc(Nc3ccc(S(N)(=O)=O)cc3)nc2N)cc1,1.9
8,Nc1nc(Nc2ccc(S(N)(=O)=O)cc2)nn1C(=O)Nc1ccc(-c2nnc(C(=O)O)o2)cc1,7
9,CN(C(=O)n1nc(Nc2ccc(S(N)(=O)=O)cc2)nc1N)c1ccccc1,47.8
10,CC(C)CCN1c2nc(Nc3cc(F)c(O)c(F)c3)ncc2N(C)C(=O)C1C (stereo not drawn),2

# Reference: ChEMBL document CHEMBL4354882, “Selective Janus Kinase 2 (JAK2) Pseudokinase Ligands with a Diaminotriazole Core” (J Med Chem, 2020)
